Patent US12686657B2, “Anti-inflammatory carboxamide derivatives” (BIOMEDCODE HELLAS SA, priority 2021, dated 2026)

Key:
[1] = test system: hTNFtg SFs; assay: Legendplex pro-inflammatory chemokine panel on hTNFTg synovial fibroblasts; assay type: cell-based, mice
Protocol: SFs were isolated as previously described by Armaka et al., 2009, from the ankle joints of hTNFtg or CBA/C57BL6 wild type (wt) littermates. Briefly, ankle joints were digested with Collagenase IV (Sigma Aldrich, C5138) for 45 minutes at a 37° C. shaking waterbath and after 5 days in culture at 37° C. and 5% CO2, a depletion of CD45+ lineage cells was performed using a Biotin anti-mouse CD45 Antibody (Biolegend, 103104) and Dynabeads™ Biotin Binder (ThermoFisher 11047), according to the manufacturer's protocol. After 10 days in culture, SFs were seeded overnight (O/N) at a concentration of 2×10^4 cells/well in a 96 well plate in 1×DMEM, supplemented with 100 U/ml Penicillin Streptomycin (P/S) and 10% Fetal Bovine Serum (FBS). The next day the cells were synchronized by starvation that included their O/N plating in low serum medium (0.5% FBS). Following the O/N starvation, the hTNFg and the WT SFs were treated with different concentrations of the experimental compounds. The SFs were at the same time activated with 10 ng/ml hTNF (Peprotech, 300-01A). 48 h following the treatment the cell culture supernatants were collected and analyzed by ELISA (R&S Systems, Duoset, DY478 and DY760) according to the manufacturer's protocol, for the detection of CCL5/Rantes and CCL20/Mip3, two known inflammatory chemokines. The IC50 values were determined as the concentration of the compounds required to reduce the levels of secreted CCL5 and CCL20 by 50%.
The supernatants of the SFs were also analyzed using the Mouse pro-inflammatory chemokine panel from Legendplex™ (Biolegend, 740007), according to manufacturer's instructions, for the simultaneous detection of 13 Mouse chemokines.
The anti-inflammatory potential of the test compounds 51, 52, 53, E and F on SFs was also assessed using the Mouse pro-inflammatory chemokine panel from Legendplex that allows the simultaneous detection of 13 Mouse chemokines. The effect of compound 51 on SFs was assessed at a dose of 25 μM, while the effect of the test compounds 52, 53, E and F was assessed at a dose of 10 μM. Numbers represent percentages of the chemokine levels secreted from the treated SFs compared to 100% levels of the chemokines detected in the untreated cells (i.e. either hTNFTg SFs or hTNF-activated wt SFs).
Table 9 summarizes the effect of the test compounds 51, 52 and 53, E and F on the inflammatory chemokines secreted from activated SFs. WT SFs were stimulated with 10 ng/ml hTNF.

[2] = test system: LPS activated thioglyclolate peritoneal macrophages; assay: Cytokines and chemokines secreted from LPS activated thioglycolate peritoneal macrophages (Legendplex panels); assay type: cell-based, mice; details: for CCL5 level, percentage of untreated control cells / IL6 level, percentage of untreated control cells / MCP1 level, percentage of untreated control cells / MDC level, percentage of untreated control cells / MIP1α level, percentage of untreated control cells / MIP1β level, percentage of untreated control cells / GMCSF level, percentage of untreated control cells / IL1α level, percentage of untreated control cells / IL12p70 level, percentage of untreated control cells / IL27 level, percentage of untreated control cells: 10 μM compound, 48 h; for IC50: Mus musculus, Peritoneal macrophage, read-out: IL6 IC50
Protocol: Activated peritoneal macrophages were isolated from the peritoneal lavage of C57BL/6 wild type mice, 5 days after the peritoneal administration of 3% Thioglucolate, as described in Jiménez-García et al., 2015. The isolated cells were seeded at a concentration of 5×10^5 cells/well in a 48 well plate. 4 h after isolation, cells were starved O/N in Optimem (Gibco, 11058, 100 U/ml P/S). The cells were further activated with 100 ng/ml Lipopolysaccharide (LPS, Sigma-Aldrich, L2630) along with the test compounds at a dose of 10 μM. 48 h later the supernatants of the cell cultures were collected and analyzed using the Mouse 13 plex Legendplex Chemokine (Biolegend, 740007) and Cytokine (Bioloegend, 740446) panels according the manufacturer's instructions.
The same protocol was repeated reducing the concentration of LPS to 10 ng/ml in order to determine the efficiency of the tested compounds.
In order to assess the anti-inflammatory activity of the compounds of the invention, their ability to reduce the levels of secreted cytokines and chemokines from activated macrophages, which are key inflammatory cells of the immune system, was measured. Test compounds 51, 52 and 53, E and F were tested at a dose of 10 μM on LPS induced thioglycolate derived peritoneal macrophages. Chemokine and cytokine analyses were performed using the Mouse pro-inflammatory panels from Legendplex and their levels are presented as a percentage of the levels detected in the untreated control cells (Tables 6a and 6b). Data presented for compounds 51, 52, 53 refer to LPS stimulation of 100 ng/ml, while compounds E and F were tested upon LPS stimulation of 10 ng/ml.

IC50 ([2]; LPS 10 ng/ml)	SMILES	EOTAXIN hTNFTg, percentage of level in untreated cells ([1]; compound 10 μM)	KC hTNFTg, percentage of level in untreated cells ([1]; compound 10 μM)	LIX hTNFTg, percentage of level in untreated cells ([1]; compound 10 μM)	MCP1 hTNFTg, percentage of level in untreated cells ([1]; compound 10 μM)	MIP1β hTNFTg, percentage of level in untreated cells ([1]; compound 10 μM)	CCL5 level, percentage of untreated control cells ([2]; LPS 10 ng/ml)	IL6 level, percentage of untreated control cells ([2]; LPS 10 ng/ml)	MCP1 level, percentage of untreated control cells ([2]; LPS 10 ng/ml)	MDC level, percentage of untreated control cells ([2]; LPS 10 ng/ml)	MIP1α level, percentage of untreated control cells ([2]; LPS 10 ng/ml)	MIP1β level, percentage of untreated control cells ([2]; LPS 10 ng/ml)	GMCSF level, percentage of untreated control cells ([2]; LPS 100 ng/ml)	IL1α level, percentage of untreated control cells ([2]; LPS 100 ng/ml)	IL6 level, percentage of untreated control cells ([2]; LPS 100 ng/ml)	IL12p70 level, percentage of untreated control cells ([2]; LPS 100 ng/ml)	IL27 level, percentage of untreated control cells ([2]; LPS 100 ng/ml)	MCP1 level, percentage of untreated control cells ([2]; LPS 100 ng/ml)	MIP1β level, percentage of untreated control cells ([2]; LPS 100 ng/ml)	further results
2670 nM	COc1cc(N)c(Cl)cc1C(=O)NCC1(Nc2cccc(OC(F)(F)F)c2)CCCCCC1 [F, 4-amino-5-chloro-2-methoxy-N-((1-((3-(trifluoromethoxy)phenyl)amino)cycloheptyl)methyl)benzamide]	0%	35%	1%	13.5%	12.5%	2%	5.3%	9%	47%	45%	26%	–	–	–	–	–	–	–	–
–	COc1cc(N)c(Cl)cc1C(=O)NCC1(c2ccc(Cl)cc2)CCCCCC1 [Compound 52, 4-amino-5-chloro-N-((1-(4-chlorophenyl)cycloheptyl)methyl)-2-methoxybenzamide]	6%	49%	48%	55%	–	–	–	–	–	–	–	36%	9%	7%	23%	19%	28%	51%	–
–	COc1cc(N)c(Cl)cc1C(=O)NCC1(c2ccc(Cl)cc2)CCCCC1 [Compound 51, 4-amino-5-chloro-N-((1-(4-chlorophenyl)cyclohexyl)methyl)-2-methoxybenzamide]	–	–	–	–	–	–	–	–	–	–	–	80%	36%	44%	54%	77%	27%	90%	EOTAXIN hTNFTg, percentage of level in untreated cells ([1]; compound 25 μM): 24%; KC hTNFTg, percentage of level in untreated cells ([1]; compound 25 μM): 80%; LIX hTNFTg, percentage of level in untreated cells ([1]; compound 25 μM): 22%; MCP1 hTNFTg, percentage of level in untreated cells ([1]; compound 25 μM): 89%
570 nM	COc1cc(N)c(Cl)cc1C(=O)NCC1(Nc2ccc(F)cc2Cl)CCCCCC1 [E, 4-amino-5-chloro-N-((1-((2-chloro-4-fluorophenyl)amino)cycloheptyl)methyl)-2-methoxybenzamide]	2.5%	32%	19.5%	25.5%	24%	8%	8.8%	9.3%	54%	50%	41%	–	–	–	–	–	–	–	–
–	COc1cc(N)c(Cl)cc1C(=O)NCC1(Nc2ccc(Cl)cc2)CCCCCC1 [Compound 53, 4-amino-5-chloro-N-((1-((4-chlorophenyl)amino)cycloheptyl)methyl)-2-methoxybenzamide]	9%	49%	40%	49.5%	33%	–	–	–	–	–	–	38%	30%	15%	18%	75%	75%	67%	CCL5 level, percentage of untreated control cells ([2]; LPS 100 ng/ml): 22%; MDC level, percentage of untreated control cells ([2]; LPS 100 ng/ml): 52%; MIP1α level, percentage of untreated control cells ([2]; LPS 100 ng/ml): 60%
